In US9499550B2 (BRISTOL-MYERS SQUIBB COMPANY, priority 2012, dated 2016):
Like-named read-outs stand apart in the source and are kept apart here.

Columns and labels:
[1] = tested on: HCV genotype 1a (H77 strain) replicon in HUH-7 cells; test: HCV replicon luciferase reporter assay, genotype 1a; type: cell-based; settings: Hepatitis C virus, Huh-7, 72 h, HCV genotype 1a replicon luciferase, 3 days incubation, read-out: LE_1a (EC50, range)
How it was run: (§1)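 Replicon inhibition for both genotypes was measured as Renilla luciferase signal (EnduRen, 7.5 μM final, 2 h) after 3-day, 37° C exposure of replicon-bearing HUH-7 cells in 4% FCS DMEM, 0.5% DMSO. The 1b construct carries S1179I; the 1a H77 construct carries P1496L and S2204I. Twenty-point, 3-fold dilutions were fitted four-parametrically for EC50, and CC50 was taken from multiplexed Cell Titer-Blue.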

[2] = tested on: HCV genotype 1b (Con1) replicon in HUH-7 cells; test: HCV replicon luciferase reporter assay, genotype 1b; type: cell-based; settings: Hepatitis C virus, Huh-7, 72 h, HCV genotype 1b replicon luciferase, 3 days incubation, read-out: LE_1b (EC50, range)
How it was run: as §1

**Q.** Which results are given for CC[C@@H]1C[C@H](C)CC/C=C\[C@@H]2C[C@@]2(C(=O)NS(=O)(=O)C2(C)CC2)NC(=O)[C@@H]2C[C@@H](Oc3ncc(OC)c4ccc(F)cc34)CN2C(=O)[C@H]1NC(=O)C(C)(C)C(F)(F)F [Compound 4324, (2R,6S,7R,9R,13aS,14aR,16aS,Z)-7-ethyl-2-((7-fluoro-4-methoxyisoquinolin-1-yl)oxy)-9-methyl-N-((1-methylcyclopropyl)sulfonyl)-5,16-dioxo-6-(3,3,3-trifluoro-2,2-dimethylpropanamido)-1,2,3,5,6,7,8,9,10,11,13a,14,14a,15,16,16a-hexadecahydrocyclopropa[e]pyrrolo[1,2-a][1,4]diazacyclopentadecine-14a-carboxamide]?
**A.** EC50 [1]: 1.01 to 5 nM; EC50 [2]: 0.51 to 1 nM

**Q.** CC[C@@H]1C[C@H](C)CC/C=C\[C@@H]2C[C@@]2(C(=O)NS(=O)(=O)C2(CO)CC2)NC(=O)[C@@H]2C[C@@H](Oc3nccc4cc(OC)c(F)cc34)CN2C(=O)[C@H]1NC(=O)OC(C)(C)C(F)(F)F [Compound 4325] was tested. Which EC50 ([1]; GETYPE1A) did it give?
**A.** The EC50 was 35 to 620 nM.

**Q.** What about the EC50 ([2]; GETYPE1B) of the same compound?
**A.** Its EC50 is 5.01 to 35 nM.

**Q.** Which results are given for CC[C@@H]1C[C@@H](C)CC/C=C\[C@@H]2C[C@@]2(C(=O)NS(=O)(=O)C2(CO)CC2)NC(=O)[C@@H]2C[C@@H](Oc3nccc4cc(OC)c(F)cc34)CN2C(=O)[C@H]1NC(=O)OC(C)(C)C(F)(F)F [Compound 4326]?
**A.** EC50 ([1]; GETYPE1A): 35 to 620 nM; EC50 ([2]; GETYPE1B): 35 to 620 nM

**Q.** Which results are given for CC[C@@H]1C[C@H](C)CC/C=C\[C@@H]2C[C@@]2(C(=O)NS(=O)(=O)C2CC2)NC(=O)[C@@H]2C[C@@H](Oc3cnnc4cc(OC)ccc34)CN2C(=O)[C@H]1NC(=O)OC(C)(C)C(F)(F)F [Compound 4327]?
**A.** EC50 ([1]; GETYPE1A): 5.01 to 35 nM; EC50 ([2]; GETYPE1B): 5.01 to 35 nM

**Q.** Which results are given for CC[C@@H]1C[C@H](C)CC/C=C\[C@@H]2C[C@@]2(C(=O)NS(=O)(=O)C2(C)CC2)NC(=O)[C@@H]2C[C@@H](Oc3ncc(OC)c4ccc(F)cc34)CN2C(=O)[C@H]1NC(=O)N1CC(C)OC(C)C1 (stereo partly drawn) [Compound 4328, N-((2R,6S,7R,9R,13aS,14aR,16aS,Z)-7-ethyl-2-((7-fluoro-4-methoxyisoquinolin-1-yl)oxy)-9-methyl-14a-(((1-methylcyclopropyl)sulfonyl)carbamoyl)-5,16-dioxo-1,2,3,5,6,7,8,9,10,11,13a,14,14a,15,16,16a-hexadecahydrocyclopropa[e]pyrrolo[1,2-a][1,4]diazacyclopentadecin-6-yl)-2,6-dimethylmorpholine-4-carboxamide]?
**A.** EC50 [1]: 1.01 to 5 nM; EC50 [2]: 1.01 to 5 nM

**Q.** Which EC50 [1] does the source give for CC[C@@H]1C[C@H](C)CC/C=C\[C@@H]2C[C@@]2(C(=O)NS(=O)(=O)C2(C)CC2)NC(=O)[C@@H]2C[C@@H](Oc3nccc4cc(OC)c(F)cc34)CN2C(=O)[C@H]1NC(=O)C1(C(F)(F)F)CC1 [Compound 4331, (2R,6S,7R,9R,13aS,14aR,16aS,Z)-7-ethyl-2-((7-fluoro-6-methoxyisoquinolin-1-yl)oxy)-9-methyl-N-((1-methylcyclopropyl)sulfonyl)-5,16-dioxo-6-(1-(trifluoromethyl)cyclopropanecarboxamido)-1,2,3,5,6,7,8,9,10,11,13a,14,14a,15,16,16a-hexadecahydrocyclopropa[e]pyrrolo[1,2-a][1,4]diazacyclopentadecine-14a-carboxamide] here?
**A.** Its EC50 is 1.01 to 5 nM.

**Q.** What about the EC50 [2] of the same compound?
**A.** The EC50 was 0.51 to 1 nM.

**Q.** With CC[C@@H]1C[C@H](C)CC/C=C\[C@@H]2C[C@@]2(C(=O)NS(=O)(=O)C2(C)CC2)NC(=O)[C@@H]2C[C@@H](Oc3nccc4cc(OC)c(F)cc34)CN2C(=O)[C@H]1NC(=O)C(C)(C)C(F)(F)F [Compound 4332, (2R,6S,7R,9R,13aS,14aR,16aS,Z)-7-ethyl-2-((7-fluoro-6-methoxyisoquinolin-1-yl)oxy)-9-methyl-N-((1-methylcyclopropyl)sulfonyl)-5,16-dioxo-6-(3,3,3-trifluoro-2,2-dimethylpropanamido)-1,2,3,5,6,7,8,9,10,11,13a,14,14a,15,16,16a-hexadecahydrocyclopropa[e]pyrrolo[1,2-a][1,4]diazacyclopentadecine-14a-carboxamide] as the compound, how does the EC50 [1] read?
**A.** Its EC50 is 1.01 to 5 nM.

**Q.** What about the EC50 [2] of the same compound?
**A.** Its EC50 is 1.01 to 5 nM.

**Q.** How did the EC50 [1] turn out when CC[C@@H]1C[C@H](C)CC/C=C\[C@@H]2C[C@@]2(C(=O)NS(=O)(=O)C2(C)CC2)NC(=O)[C@@H]2C[C@@H](Oc3nccc4cc(OC)c(F)cc34)CN2C(=O)[C@H]1NC(=O)N1CCOCC1 [Compound 4333, N-((2R,6S,7R,9R,13aS,14aR,16aS,Z)-7-ethyl-2-((7-fluoro-6-methoxyisoquinolin-1-yl)oxy)-9-methyl-14a-(((1-methylcyclopropyl)sulfonyl)carbamoyl)-5,16-dioxo-1,2,3,5,6,7,8,9,10,11,13a,14,14a,15,16,16a-hexadecahydrocyclopropa[e]pyrrolo[1,2-a][1,4]diazacyclopentadecin-6-yl)morpholine-4-carboxamide] was run?
**A.** The EC50 was 5.01 to 35 nM.

**Q.** What about the EC50 [2] of the same compound?
**A.** Its EC50 is 5.01 to 35 nM.

**Q.** Which EC50 [1] does the source give for CC[C@@H]1C[C@H](C)CC/C=C\[C@@H]2C[C@@]2(C(=O)NS(=O)(=O)C2(C)CC2)NC(=O)[C@@H]2C[C@@H](Oc3nccc4cc(OC)c(F)cc34)CN2C(=O)[C@H]1NC(=O)N1CC(C)OC(C)C1 (stereo partly drawn) [Compound 4334, N-((2R,6S,7R,9R,13aS,14aR,16aS,Z)-7-ethyl-2-((7-fluoro-6-methoxyisoquinolin-1-yl)oxy)-9-methyl-14a-(((1-methylcyclopropyl)sulfonyl)carbamoyl)-5,16-dioxo-1,2,3,5,6,7,8,9,10,11,13a,14,14a,15,16,16a-hexadecahydrocyclopropa[e]pyrrolo[1,2-a][1,4]diazacyclopentadecin-6-yl)-2,6-dimethylmorpholine-4-carboxamide] here?
**A.** Its EC50 is 1.01 to 5 nM.

**Q.** And the EC50 [2]?
**A.** The EC50 was 1.01 to 5 nM.

**Q.** Which results are given for CC[C@@H]1C[C@H](C)CC/C=C\[C@@H]2C[C@@]2(C(=O)NS(=O)(=O)C2(C)CC2)NC(=O)[C@@H]2C[C@@H](Oc3nccc4cc(OC)c(F)cc34)CN2C(=O)[C@H]1NC(=O)N1CCN(C)CC1 [Compound 4335, (2R,6S,7R,9R,13aS,14aR,16aS,Z)-7-ethyl-2-((7-fluoro-6-methoxyisoquinolin-1-yl)oxy)-9-methyl-N-((1-methylcyclopropyl)sulfonyl)-6-(4-methylpiperazine-1-carboxamido)-5,16-dioxo-1,2,3,5,6,7,8,9,10,11,13a,14,14a,15,16,16a-hexadecahydrocyclopropa[e]pyrrolo[1,2-a][1,4]diazacyclopentadecine-14a-carboxamide]?
**A.** EC50 [1]: 5.01 to 35 nM; EC50 [2]: 5.01 to 35 nM

**Q.** For CC(C)Oc1ccc2nc(C(F)(F)F)c(O[C@@H]3C[C@H]4C(=O)N[C@]5(C(=O)NS(=O)(=O)C6(C)CC6)C[C@H]5/C=C\CC[C@@H](C)C[C@@H](C)[C@H](NC(=O)OC(C)(C)C(F)(F)F)C(=O)N4C3)nc2c1 [Compound 4336], which EC50 ([1]; GETYPE1A) is on record?
**A.** Its EC50 is 0.51 to 1 nM.

**Q.** And the EC50 ([2]; GETYPE1B)?
**A.** The EC50 was 0.51 to 1 nM.

**Q.** How did the EC50 [1] turn out when CC[C@@H]1C[C@H](C)CC/C=C\[C@@H]2C[C@@]2(C(=O)NS(=O)(=O)C2CC2)NC(=O)[C@@H]2C[C@@H](Oc3nc4cc(OC(C)C)ccc4nc3C(F)(F)F)CN2C(=O)[C@H]1NC(=O)OC(C)(C)C [Compound 4337, tert-butyl ((2R,6S,7R,9R,13aS,14aR,16aS,Z)-14a-((cyclopropylsulfonyl)carbamoyl)-7-ethyl-2-((7-isopropoxy-3-(trifluoromethyl)quinoxalin-2-yl)oxy)-9-methyl-5,16-dioxo-1,2,3,5,6,7,8,9,10,11,13a,14,14a,15,16,16a-hexadecahydrocyclopropa[e]pyrrolo[1,2-a][1,4]diazacyclopentadecin-6-yl)carbamate] was run?
**A.** Its EC50 is 0.51 to 1 nM.

**Q.** And the EC50 [2]?
**A.** Its EC50 is 0.51 to 1 nM.

**Q.** Which EC50 ([1]; GETYPE1A) does the source give for CC[C@@H]1C[C@H](C)CC/C=C\[C@@H]2C[C@@]2(C(=O)NS(=O)(=O)C2CC2)NC(=O)[C@@H]2C[C@@H](Oc3nc4cc(OC(C)C)ccc4nc3C(F)(F)F)CN2C(=O)[C@H]1NC(=O)OC(C)(C)C(F)(F)F [Compound 4338] here?
**A.** The EC50 was 1.01 to 5 nM.

**Q.** And the EC50 ([2]; GETYPE1B)?
**A.** The EC50 was 1.01 to 5 nM.

**Q.** How did the EC50 ([1]; GETYPE1A) turn out when COc1cnc2ccc(O[C@@H]3C[C@H]4C(=O)N[C@]5(C(=O)NS(=O)(=O)C6(C)CC6)C[C@H]5/C=C\CC[C@@H](C)C[C@@H](C)[C@H](NC(=O)OC(C)(C)C(F)(F)F)C(=O)N4C3)cc2n1 [Compound 4339] was run?
**A.** The EC50 was 0.1 to 0.5 nM.

**Q.** And the EC50 ([2]; GETYPE1B)?
**A.** The EC50 was 0.1 to 0.5 nM.

**Q.** For CC[C@@H]1C[C@H](C)CC/C=C\[C@@H]2C[C@@]2(C(=O)NS(=O)(=O)C2CC2)NC(=O)[C@@H]2C[C@@H](Oc3cnnc4cc(OC)ccc34)CN2C(=O)[C@H]1NC(=O)OC(C)(C)C [Compound 4340, tert-butyl ((2R,6S,7R,9R,13aS,14aR,16aS,Z)-14a-((cyclopropylsulfonyl)carbamoyl)-7-ethyl-2-((7-methoxycinnolin-4-yl)oxy)-9-methyl-5,16-dioxo-1,2,3,5,6,7,8,9,10,11,13a,14,14a,15,16,16a-hexadecahydrocyclopropa[e]pyrrolo[1,2-a][1,4]diazacyclopentadecin-6-yl)carbamate], which EC50 [1] is on record?
**A.** The EC50 was 5.01 to 35 nM.

**Q.** And the EC50 [2]?
**A.** Its EC50 is 5.01 to 35 nM.

**Q.** Which results are given for CC[C@@H]1C[C@H](C)CC/C=C\[C@@H]2C[C@@]2(C(=O)NS(=O)(=O)C2(C)CC2)NC(=O)[C@@H]2C[C@@H](Oc3ncc(OC)c4ccc(F)cc34)CN2C(=O)[C@H]1NC(=O)N1CCN(C)CC1 [Compound 4341, (2R,6S,7R,9R,13aS,14aR,16aS,Z)-7-ethyl-2-((7-fluoro-4-methoxyisoquinolin-1-yl)oxy)-9-methyl-N-((1-methylcyclopropyl)sulfonyl)-6-(4-methylpiperazine-1-carboxamido)-5,16-dioxo-1,2,3,5,6,7,8,9,10,11,13a,14,14a,15,16,16a-hexadecahydrocyclopropa[e]pyrrolo[1,2-a][1,4]diazacyclopentadecine-14a-carboxamide]?
**A.** EC50 [1]: 1.01 to 5 nM; EC50 [2]: 1.01 to 5 nM
